In patent publication US8828907B2, “Active ingredient combinations having insecticidal and acaricidal properties” (Bayer CropScience AG, priority 2009, dated 2014):

What was measured:
Type in all cases: in vivo
Details in all cases: single active compound
[1] = system: larvae of the armyworm (Spodoptera frugiperda); assay: Spodoptera frugiperda larvae test (sprayed cabbage leaves)
Experimental: (§1) Solvents: 78 parts by weight of acetone • • 1.5 parts by weight of dimethylformamide
(§2) Emulsifier: 0.5 part by weight of alkylaryl polyglycol ether
(§3) To produce a suitable preparation of active compound, 1 part by weight of active compound is mixed with the stated amount of solvent and emulsifier, and the concentrate is diluted with emulsifier-containing water to the desired concentration.
Cabbage leaves (Brassica oleracea) are treated by being sprayed with the preparation of active compound of the desired concentration and are populated with larvae of the armyworm (Spodoptera frugiperda) while the leaves are still moist.
After the desired period of time, the kill in % is determined. 100% means that all caterpillars have been killed; 0% means that none of the caterpillars have been killed. The kill rates determined are entered into Colby's formula (see above).

[2] = system: green peach aphid (Myzus persicae); assay: Myzus persicae test (spray on infested cabbage leaves)
Experimental: as §1, §2, §3
Cabbage leaves (Brassica oleracea) which are heavily infested by the green peach aphid (Myzus persicae) are treated by spraying with the active compound preparation of the desired concentration.
After the desired period of time, the kill in % is determined. 100% means that all of the aphids have been killed; 0% means that none of the aphids have been killed. The kill rates determined are entered into Colby's formula (see above).

[3] = system: larvae of the mustard beetle (Phaedon cochleariae); assay: Phaedon cochleariae larvae test (sprayed cabbage leaves)
Experimental: as §1, §2, §3
Cabbage leaves (Brassica oleracea) are treated by spraying with the active ingredient formulation of the desired concentration and populated with larvae of the mustard beetle (Phaedon cochleariae) while the leaves are still moist.
After the desired period of time, the kill in % is determined. 100% means that all beetle larvae have been killed; 0% means that none of the beetle larvae have been killed. The kill rates determined are entered into Colby's formula (see above).

[4] = system: greenhouse red spider mite (Tetranychus urticae); assay: Tetranychus urticae test (OP-resistant/spray treatment)
Experimental: as §1, §2, §3
Discs of bean leaves (Phaseolus vulgaris) which are infested by all stages of the greenhouse red spider mite (Tetranychus urticae) are sprayed with an active compound preparation of the desired concentration.
After the desired period of time, the effect in % is determined. 100% means that all of the spider mites have been killed; 0% means that none of the spider mites have been killed.

Structure (SMILES)	Kill in % after 2d ([1]; 0.8 g/ha) [%]	Kill in % after 2d ([1]; 20 g/ha) [%]	Kill in % after 1d ([2]; 0.8 g/ha) [%]	Kill in % after 2d ([3]; 100 g/ha) [%]	Kill in % after 2d ([1]; 0.16 g/ha) [%]	Kill in % after 1d ([2]; 4 g/ha) [%]	Kill in % after 2d ([3]; 4 g/ha) [%]	Kill in % after 2d ([1]; 4 g/ha) [%]	Kill in % after 6d ([4]; 100 g/ha) [%]	Kill in % after 6d ([4]; 20 g/ha) [%]
CN(Cc1cnc(Cl)c(F)c1)C1=CC(=O)OC1 [compound (I-6), 4-{[(6-chloro-5-fluorpyrid-3-yl)methyl](methyl)amino}furan-2(5H)-one]	0	0	70	0	–	–	–	–	–	–
O=C(NC(=O)c1ccccc1Cl)Nc1ccc(OC(F)(F)F)cc1 [triflumuron, reference compound]	33	–	0	–	50	0	0	–	–	–
COc1cccc(C(=O)NN(C(=O)c2cc(C)cc(C)c2)C(C)(C)C)c1C [methoxyfenozide, reference compound]	–	83	–	–	–	0	–	33	0	–
O=C1C=C(N(CCF)Cc2ccc(Cl)nc2)CO1 [compound (I-4), 4-{[(6-chloropyrid-3-yl)methyl](2-fluoroethyl)amino}furan-2(5H)-one]	0	0	–	0	0	30	0	–	–	0
O=C1C=C(N(Cc2ccc(Cl)nc2)CC(F)F)CO1 [compound (I-5), 4-{[(6-chloropyrid-3-yl)methyl](2,2-difluoroethyl)amino}furan-2(5H)-one]	0	–	–	0	–	–	0	0	0	0
O=C(NC(=O)c1c(F)cccc1F)Nc1ccc(Oc2ccc(C(F)(F)F)cc2Cl)cc1F [flufenoxuron, reference compound]	33	–	0	0	–	0	–	–	–	0
O=C(NC(=O)c1c(F)cccc1F)Nc1cc(Cl)c(OC(F)(F)C(F)C(F)(F)F)cc1Cl (stereo not drawn) [lufenuron, reference compound]	–	–	–	17	–	0	–	–	–	–
